Reference: US20080274892A1, “Novel Haloalkylsulfonanilide Derivative, Herbicide, and Method of Use Thereof” (priority 2005, published 2008)

Legend:
[1] = tested on: bulrush; assay: Test Example 1: herbicidal efficacy on rice paddy weeds pre-emergence; assay type: in vivo, Scirpus juncoides; details: dosage 1000 g/ha, 21 days
[2] = tested on: false pimpernel; assay: as above; assay type: in vivo, Lindernia pyxidaria; details: dosage 1000 g/ha, 21 days
[3] = tested on: barnyard glass; assay: Test Example 2: herbicidal efficacy on rice paddy weeds post-emergence; assay type: in vivo, Echinochloa crus-galli; details: dosage 1000 g/ha; post-emergence, one leaf stage; 21 days after treatment
In short: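 Plastic pots of 75 cm^2 were filled with clay loam soil and sown with barnyard glass and bulrush seeds, then topped with 75 cm^3 soil containing false pimpernel seeds. The pots were flooded to 5 cm water depth and held in a hot house. Twenty-one days after treatment, herbicidal efficacy was graded against an untreated control.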

[4] = tested on: bulrush; assay: as above; assay type: in vivo, Scirpus juncoides; details: dosage 1000 g/ha; post-emergence, one leaf stage; 21 days after treatment
[5] = tested on: false pimpernel; assay: as above; assay type: in vivo, Lindernia pyxidaria; details: dosage 1000 g/ha; post-emergence, one leaf stage; 21 days after treatment
[6] = tested on: paddy rice plant (cultivar: Nihonbare); assay: Test Example 3: phytotoxicity test for transplanted paddy rice plant; assay type: in vivo; details: dosage 1000 g/ha; transplanted rice, treated 5 days after transplantation; 21 days after treatment
In short: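 Clay loam soil was placed in a 75 cm^2 plastic pot and flooded to a water depth of 5 cm. Two Nihonbare paddy rice plants at the two-leaf stage were transplanted 1 cm deep and grown in a hot house. After treatment, pots stayed in the hot house for 21 days, and phytotoxicity was then graded against an untreated control.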

[7] = tested on: bulrush; assay: Test Example 4: low dosage test for rice paddy weeds; assay type: in vivo, Scirpus juncoides; details: 300 g/ha as an active ingredient; plants treated at the one leaf stage; 21 days after treatment; vs untreated control
In short: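 Bulrush sown in clay loam pots, flooded to 5 cm water in a hot house, treated at the one-leaf stage with formulated compound at 300 g/ha. Efficacy scored 0–4 against untreated control 21 days after treatment (4 = 90–100%, 0 = 0% inhibition).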

[8] = tested on: transplanted paddy rice plant and Bulrush; assay: Test Example 5: selectivity between transplanted paddy rice plant and weeds; assay type: in vivo; details: (highest dosage with no phytotoxicity to paddy rice)/(lowest dosage with effective level 4 on Bulrush); rice 3000-100 g/ha, Bulrush 300-10 g/ha; 21 days
In short: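 Transplanted paddy rice was treated at 3000, 1000, 300 and 100 g/ha active ingredient for phytotoxicity, and post-emergence bulrush at 300, 100, 30 and 10 g/ha. Plants were kept in a hothouse for 21 days. Growth inhibition versus untreated control was scored 0–4 (0%, 1–39%, 40–69%, 70–89%, 90–100%).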

Structure (SMILES) | Bulrush pre (herbicidal efficacy grade) [1] | False pimpernel pre (herbicidal efficacy grade) [2] | Burnyard grass post (herbicidal efficacy grade) [3] | Bulrush post (herbicidal efficacy grade) [4] | False pimpernel post (herbicidal efficacy grade) [5] | Phytotoxicity to paddy rice [6] | Herbicide effect to Bulrush [7] | Selective Index [8]
CCC1(C)CN(Cc2ccccc2N(C(=O)OC)S(=O)(=O)C(F)(F)F)C(=O)O1 (racemic) [1-108] | 4 (90%-100% of herbicidal efficacy or phytotoxicity) | 4 (90%-100% of herbicidal efficacy or phytotoxicity) | 4 (90%-100% of herbicidal efficacy or phytotoxicity) | 4 (90%-100% of herbicidal efficacy or phytotoxicity) | 4 (90%-100% of herbicidal efficacy or phytotoxicity) | 2 (40%-69% of herbicidal efficacy or phytotoxicity) | 4 (90%-100% of herbicidal efficacy or phytotoxicity) | 30
CC(C)COC(=O)N(c1ccccc1CN1CC(C)(C)OC1=S)S(=O)(=O)C(F)(F)F [1-50] | 4 (90%-100% of herbicidal efficacy or phytotoxicity) | 4 (90%-100% of herbicidal efficacy or phytotoxicity) | 4 (90%-100% of herbicidal efficacy or phytotoxicity) | 4 (90%-100% of herbicidal efficacy or phytotoxicity) | 4 (90%-100% of herbicidal efficacy or phytotoxicity) | 2 (40%-69% of herbicidal efficacy or phytotoxicity) | 4 (90%-100% of herbicidal efficacy or phytotoxicity) | 10
CCOC(=O)N(c1ccccc1CN1CC(C)(C2CC2)OC1=O)S(=O)(=O)C(F)(F)F (racemic) [1-111] | 4 (90%-100% of herbicidal efficacy or phytotoxicity) | 4 (90%-100% of herbicidal efficacy or phytotoxicity) | 4 (90%-100% of herbicidal efficacy or phytotoxicity) | 4 (90%-100% of herbicidal efficacy or phytotoxicity) | 4 (90%-100% of herbicidal efficacy or phytotoxicity) | 2 (40%-69% of herbicidal efficacy or phytotoxicity) | 4 (90%-100% of herbicidal efficacy or phytotoxicity) | ≧30
C#CCOC(=O)N(c1ccccc1CN1CC(C)(C)OC1=O)S(=O)(=O)C(F)(F)F [1-79] | 4 (90%-100% of herbicidal efficacy or phytotoxicity) | 4 (90%-100% of herbicidal efficacy or phytotoxicity) | 4 (90%-100% of herbicidal efficacy or phytotoxicity) | 4 (90%-100% of herbicidal efficacy or phytotoxicity) | 4 (90%-100% of herbicidal efficacy or phytotoxicity) | 2 (40%-69% of herbicidal efficacy or phytotoxicity) | 4 (90%-100% of herbicidal efficacy or phytotoxicity) | 10
CC(C)COC(=O)N(c1ccccc1CN1C(=O)OC2CCCCC21)S(=O)(=O)C(F)(F)F (stereo not drawn) [1-48] | 4 (90%-100% of herbicidal efficacy or phytotoxicity) | 4 (90%-100% of herbicidal efficacy or phytotoxicity) | 4 (90%-100% of herbicidal efficacy or phytotoxicity) | 4 (90%-100% of herbicidal efficacy or phytotoxicity) | 4 (90%-100% of herbicidal efficacy or phytotoxicity) | 1 (1%-39% of herbicidal efficacy or phytotoxicity) | 3 (70%-89% of herbicidal efficacy or phytotoxicity) | 10
COC(=O)N(c1ccccc1CN1CC(C)(C2CCCCC2)OC1=O)S(=O)(=O)C(F)(F)F (stereo not drawn) [1-157] | 4 (90%-100% of herbicidal efficacy or phytotoxicity) | 4 (90%-100% of herbicidal efficacy or phytotoxicity) | 4 (90%-100% of herbicidal efficacy or phytotoxicity) | 4 (90%-100% of herbicidal efficacy or phytotoxicity) | 4 (90%-100% of herbicidal efficacy or phytotoxicity) | 1 (1%-39% of herbicidal efficacy or phytotoxicity) | 3 (70%-89% of herbicidal efficacy or phytotoxicity) | 3
CCC1(CC)CN(Cc2ccccc2N(C(=O)OCC(C)(C)C)S(=O)(=O)C(F)(F)F)C(=O)O1 [1-100] | 4 (90%-100% of herbicidal efficacy or phytotoxicity) | 4 (90%-100% of herbicidal efficacy or phytotoxicity) | 4 (90%-100% of herbicidal efficacy or phytotoxicity) | 4 (90%-100% of herbicidal efficacy or phytotoxicity) | 4 (90%-100% of herbicidal efficacy or phytotoxicity) | 1 (1%-39% of herbicidal efficacy or phytotoxicity) | 4 (90%-100% of herbicidal efficacy or phytotoxicity) | 10
CC(C)COC(=O)N(c1ccccc1CN1CC(C)(C2(C)CC2)OC1=O)S(=O)(=O)C(F)(F)F (stereo not drawn) [1-168] | 4 (90%-100% of herbicidal efficacy or phytotoxicity) | 4 (90%-100% of herbicidal efficacy or phytotoxicity) | 4 (90%-100% of herbicidal efficacy or phytotoxicity) | 4 (90%-100% of herbicidal efficacy or phytotoxicity) | 4 (90%-100% of herbicidal efficacy or phytotoxicity) | 1 (1%-39% of herbicidal efficacy or phytotoxicity) | 4 (90%-100% of herbicidal efficacy or phytotoxicity) | 10
CCCC1(C)CN(Cc2ccccc2N(C(=O)OC)S(=O)(=O)C(F)(F)F)C(=O)O1 (racemic) [1-126] | 4 (90%-100% of herbicidal efficacy or phytotoxicity) | 4 (90%-100% of herbicidal efficacy or phytotoxicity) | 4 (90%-100% of herbicidal efficacy or phytotoxicity) | 4 (90%-100% of herbicidal efficacy or phytotoxicity) | 4 (90%-100% of herbicidal efficacy or phytotoxicity) | 2 (40%-69% of herbicidal efficacy or phytotoxicity) | 4 (90%-100% of herbicidal efficacy or phytotoxicity) | 10
COC(=O)N(c1ccccc1CN1C(=O)OCC1C)S(=O)(=O)C(F)(F)F (stereo not drawn) [1-150] | 4 (90%-100% of herbicidal efficacy or phytotoxicity) | 4 (90%-100% of herbicidal efficacy or phytotoxicity) | 4 (90%-100% of herbicidal efficacy or phytotoxicity) | 4 (90%-100% of herbicidal efficacy or phytotoxicity) | 4 (90%-100% of herbicidal efficacy or phytotoxicity) | 2 (40%-69% of herbicidal efficacy or phytotoxicity) | 4 (90%-100% of herbicidal efficacy or phytotoxicity) | 10
CC(C)OC(=O)N(c1ccccc1CN1CC(C)(C)OC1=O)S(=O)(=O)C(F)(F)F [1-76] | 4 (90%-100% of herbicidal efficacy or phytotoxicity) | 4 (90%-100% of herbicidal efficacy or phytotoxicity) | 4 (90%-100% of herbicidal efficacy or phytotoxicity) | 4 (90%-100% of herbicidal efficacy or phytotoxicity) | 4 (90%-100% of herbicidal efficacy or phytotoxicity) | 2 (40%-69% of herbicidal efficacy or phytotoxicity) | 4 (90%-100% of herbicidal efficacy or phytotoxicity) | 30
CC(C)COC(=O)N(c1ccccc1CN1C(=O)OC(C)(C)C1=O)S(=O)(=O)C(F)(F)F [Compound No. 1-189, 3-{2-[N-(isobutoxycarbonyl)-N-(trifluoromethanesulfonyl)amino]benzyl}-5,5-dimethyloxazolidine-2,4-dione] | 4 (90%-100% of herbicidal efficacy or phytotoxicity) | 4 (90%-100% of herbicidal efficacy or phytotoxicity) | 4 (90%-100% of herbicidal efficacy or phytotoxicity) | 4 (90%-100% of herbicidal efficacy or phytotoxicity) | 4 (90%-100% of herbicidal efficacy or phytotoxicity) | 1 (1%-39% of herbicidal efficacy or phytotoxicity) | 4 (90%-100% of herbicidal efficacy or phytotoxicity) | ≧10
